Results reported in ChEMBL document CHEMBL6120988, “Mitochondria-targeting artesunate-rhein conjugates: Linker-modulated cell-permeability, heme-affinity and anticancer activity” (Eur J Med Chem, 2025).
Calls of active or inactive are those of the source. The rule behind the calls is not given here.

What was measured:
[1] = Toxicity against female BALB/c mouse allografted with mouse 4T1 cells assessed as hemoglobin at 100 mg/kg, po administrated every day for 15 times and measured after 22 days; format: organism-based; conditions: in vivo, 528 h, time 22 day
[2] = Oral bioavailability in mouse at 100 mg/kg; format: ADME, organism-based; conditions: in vivo
4T1 [3] = assay: Antitumor activity against mouse 4T1 cells allografted in female BALB/c mouse assessed as inhibition of cell proliferation at 10 mg/kg, iv administrated every 3 day for 5 times and measured after 22 days by PCNA assay; format: functional, organism-based; conditions: time 22.0 day
4T1 [4] = assay: Induction of apoptosis in mouse 4T1 cells assessed as viable cells by Annexin V-FITC and PI staining based flow cytometry analysis (reference value: 96.2 %); format: functional
[5] = Toxicity against female BALB/c mouse allografted with mouse 4T1 cells assessed as mean corpuscular volume at 100 mg/kg, po administrated every day for 15 times and measured after 22 days; format: organism-based; conditions: in vivo, 528 h, time 22 day
[6] = Tmax in mouse at 100 mg/kg, po; format: ADME, organism-based; conditions: in vivo
4T1 [7] = assay: Induction of mitochondrial dysfunction in mouse 4T1 cells assessed as ATP production; format: functional, cell-based
4T1 [8] = assay: Cytotoxicty against mouse 4T1 cells assessed as cell viability by MTT assay; format: functional, cell-based
4T1 [9] = assay: Antitumor activity against mouse 4T1 cells allografted in female BALB/c mouse assessed as increase in nuclear shrinkage at 100 mg/kg, po administrated every day for 15 times and measured for 22 days; format: functional, organism-based; conditions: time 22.0 day
[10] = Drug uptake in mouse 4T1 cells after 3 hrs by flow cytometry analysis; format: ADME, cell-based; conditions: 4t1, 3 h
[11] = Toxicity against female BALB/c mouse allografted with mouse 4T1 cells assessed as effect on red blood cells at 100 mg/kg, po administrated every day for 15 times and measured after 22 days; format: organism-based; conditions: in vivo, 528 h, time 22 day
[12] = Toxicity in female BALB/c mouse allografted with mouse 4T1 cells assessed as survival rate at 10 mg/kg, iv administrated every 3 day for 5 times and measured after 22 days relative to control; format: organism-based; conditions: in vivo, 528 h, time 22 day
4T1 [13] = assay: Antitumor activity against mouse 4T1 cells allografted in female BALB/c mouse assessed as disappearance of cancer cells at 100 mg/kg, po administrated every day for 15 times and measured after 22 days by H and E staining based analysis; format: functional, organism-based; conditions: time 22.0 day
HeLa = assay: Cytotoxicity against human Hela cells assessed as cell viability by MTT assay; format: functional, cell-based
U-87 MG = assay: Cytotoxicity against human U87 cells assessed as cell viability by MTT assay; format: functional, cell-based, U-87MG ATCC
4T1 [14] = assay: Antitumor activity against mouse 4T1 cells allografted in female BALB/c mouse assessed as tumor inhibition rate at 10 mg/kg, iv administrated every 3 day for 5 times and measured after 22 days relative to control; format: functional; design: scale not given: the % may be the effect or the level left; conditions: time 22 day
4T1 [15] = assay: Antitumor activity against mouse 4T1 cells allografted in female BALB/c mouse assessed as increase in infiltration of CD3+ CD8+ T lymphocytes in tumors at 100 mg/kg, po administrated every day for 15 times and measured after 22 days by flow cytometry (reference value: 6.91 %); format: functional; conditions: time 22 day
4T1 [16] = assay: Potency index, ratio of paclitaxel IC50 to test compound IC50 for cytotoxicity against mouse 4T1 cells assessed as cell viability by MTT assay; format: functional
A549 = assay: Cytotoxicity against human A549 cells assessed as cell viability by MTT assay; format: functional, cell-based
[17] = Toxicity in female BALB/c mouse allografted with mouse 4T1 cells assessed as effect on blood platelet at 10 mg/kg, iv administrated every 3 days for 5 times and measured after 22 days; format: organism-based; conditions: in vivo, 528 h, time 22 day
4T1 [18] = assay: Antitumor activity against mouse 4T1 cells allografted in female BALB/c mouse assessed as reduction in tumor tissue volume at 10 mg/kg, iv administrated every 3 day for 5 times and measured after for 22 days; format: functional, organism-based; conditions: time 22.0 day
[19] = Drug localization in mitochondria of mouse 4T1 cells assessed as fluorescence intensity measured using pearson co-efficient incubated for 10 hrs by mito-tracker red fluorescent dye based confocal laser scanning microscopic analysis; format: ADME; conditions: 4t1, 10 h
[20] = AUC(0 to t) in mouse iv dosed mouse; format: ADME, organism-based; conditions: in vivo, dose 10 mg/kg, time 3 day
[21] = Toxicity against female BALB/c mouse allografted with mouse 4T1 cells assessed as mean corpuscular volume at 10 mg/kg, iv administrated every 3 days for 5 times and measured after 22 days; format: organism-based; conditions: in vivo, 528 h, time 22 day
4T1 [22] = assay: Induction of immunogenic cell death in mouse 4T1 cells allografted in female BALB/c mouse assessed as increase in CD80+ CD86+CD11c+ cells DC maturation at 100 mg/kg, po administrated every day for 15 times and measured after 22 days by flow cytometry (reference value: 7.20 %); format: functional; conditions: time 22 day
4T1 [23] = assay: Induction of mitochondrial dysfunction in mouse 4T1 cells assessed as coupling efficiency; format: functional, cell-based
4T1 [24] = assay: Induction of mitochondrial dysfunction in mouse 4T1 cells assessed as maximum respiration; format: functional, cell-based
4T1 [25] = assay: Induction of apoptosis in mouse 4T1 cells assessed as early apoptotic cells by Annexin V-FITC and PI staining based flow cytometry analysis(reference value: 3.60 %); format: functional
[26] = MRT (0 to infinity) in iv dosed mouse; format: ADME, organism-based; conditions: in vivo
[27] = MRT (0 to infinity) in mouse at 100 mg/kg, po; format: ADME, organism-based; conditions: in vivo
4T1 [28] = assay: Antitumor activity against mouse 4T1 cells allografted in female BALB/c mouse assessed as increase in infiltration of CD8+IFN-gamma+ lymphocytes in tumors at 10 mg/kg, iv administrated every day for 15 times and measured after 22 days by flow cytometry (reference value: 5.58%); format: functional; conditions: time 22 day
4T1 [29] = assay: Antitumor activity against mouse 4T1 cells allografted in female BALB/c mouse assessed as increase in nuclear shrinkage at 10 mg/kg, iv administrated every 3 day for 5 times and measured after 22 days; format: functional, organism-based; conditions: time 22.0 day
4T1 [30] = assay: Immunostimulatory activity in mouse 4T1 cells implanted in female BALB/c mouse assessed as increase in immunostimulatory CD86+ expression; format: functional, cell-based
[31] = Toxicity in female BALB/c mouse allografted with mouse 4T1 cells assessed as change in body weight at 100 mg/kg, po administrated every day for 15 times and measured every 2 days for 22 days relative to control; format: organism-based; conditions: in vivo, 528 h, time 22 day
4T1 [32] = assay: Induction of mitochondrial dysfunction in mouse 4T1 cells assessed as basal respiration; format: functional, cell-based
4T1 [33] = assay: Antitumor activity against mouse 4T1 cells allografted in female BALB/c mouse assessed as increase in infiltration of CD44+CD62L- lymphocytes in tumors at 10 mg/kg, iv administrated every day for 15 times and measured after 22 days by flow cytometry (reference value: 5.17%); format: functional; conditions: time 22 day
4T1 [34] = assay: Antitumor activity against mouse 4T1 cells allografted in female BALB/c mouse assessed as reduction in tumor tissue volume at 100 mg/kg, po administrated every day for 15 times and measured after 22 days relative to control; format: functional, organism-based; conditions: time 22.0 day
[35] = AUC(0 to t) in mouse at 100 mg/kg, po; format: ADME, organism-based; conditions: in vivo
4T1 [36] = assay: Antitumor activity against mouse 4T1 cells allografted in female BALB/c mouse assessed as tumor inhibition rate at 100 mg/kg, po administrated every day for 15 times and measured after 22 days relative to control; format: functional; design: scale not given: the % may be the effect or the level left; conditions: time 22 day
4T1 [37] = assay: Antitumor activity against mouse 4T1 cells allografted in female BALB/c mouse assessed as inhibition of cell proliferation at 100 mg/kg, po administrated every day for 15 times and measured after 22 days by PCNA assay; format: functional, organism-based; conditions: time 22.0 day

For C[C@H]1[C@H](OC(=O)CCC(=O)OCCCCOC(=O)c2cc(O)c3c(c2)C(=O)c2cccc(O)c2C3=O)O[C@@H]2O[C@@]3(C)CC[C@H]4[C@H](C)CC[C@@H]1[C@@]24OO3, the Activity [1] was “Non-toxic”, the bioavailability [2] was 15.8% and the Activity (4T1 [3]) was “Active”. For the same molecule, the Activity (4T1 [4]) was 35.5%, the Activity [5] was “Non-toxic” and the Tmax [6] was 3 h. The Activity (4T1 [7]) was “Active”, the IC50 (4T1 [8]) was 1130 nM and the Activity (4T1 [9]) was “Active”. For the same molecule, the Activity [10] was “Active”, the Activity [11] was “Non-toxic” and the Survival [12] was “<= 39 day”. For the same molecule, the Activity (4T1 [13]) was “Active”, the IC50 (HeLa) was 2430 nM and the IC50 (U-87 MG) was 2140 nM. The Activity (4T1 [14]) was 79.15%, the Activity (4T1 [15]) was 15.4% and the “Ratio IC50” value (4T1 [16]) was 3. For the same molecule, the IC50 (A549) was 2790 nM, the Activity [17] was “Non-toxic” and the Activity (4T1 [18]) was “Active”. The Flu intensity [19] was 0.96, the AUC(0-t) at 72 h [20] was 11500 ng·h/mL and the Activity [21] was “Non-toxic”. For the same molecule, the Activity (4T1 [22]) was 17.4%, the Activity (4T1 [23]) was “Active” and the Activity (4T1 [24]) was “Active”. It also gave an Activity (4T1 [25]) of 34.8%, an MRT inf [26] of 7.67 h and an MRT inf [27] of 4.95 h. For the same molecule, the Activity (4T1 [28]) was 12.3%, the Activity (4T1 [29]) was “Active” and the Activity (4T1 [30]) was “Active”. The Activity [31] was “Non-toxic”, the Activity (4T1 [32]) was “Active” and the Activity (4T1 [33]) was 14.4%. For the same molecule, the Activity (4T1 [34]) was “Active; Tumor Lighter Weight Than Pbs Treatment”, the AUC(0-t) [35] was 18200 ng·h/mL and the Activity (4T1 [36]) was 76.84%. For the same molecule, the Activity (4T1 [37]) was “Active”.
